{
  "source": "patent US20230085307A1",
  "about": "“PYRIDAZINONE COMPOUND AND HERBICIDE” (NISSAN CHEMICAL CORPORATION, priority 2019, published 2023)",
  "key": {"oval-leafed pondweed": {"test_system": "oval-leafed pondweed", "assay": "Test Example 1: herbicidal activity, application before weed generation under submerged conditions (Table 16, symbol C)", "assay_type": "in vivo, oval-leafed pondweed (Monochoria vaginalis)", "settings": "320 g/ha applied herbicide", "method_in_brief": "(§1)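 Alluvial soil was flooded to 4 cm depth, weed seeds were sown mixed and 2.5-leaf rice seedlings were transplanted. On sowing day, the compound's emulsion, diluted in water to a set dose, was applied to the water surface. Plants grew at 25–30 °C and were scored 0–5 after three weeks.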"}, "velvetleaf [1]": {"test_system": "velvetleaf", "assay": "Test Example 4: herbicidal effect by soil treatment (Table 19, symbol M)", "assay_type": "in vivo, velvetleaf (Abutilon theophrasti)", "settings": "320 g/ha", "method_in_brief": "(§2)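 Seeds were sown in sterilized diluvial soil and covered with about 1.5 cm of soil. An emulsion formulation diluted with water to a predetermined herbicide amount was sprayed evenly onto the soil surface. Plants grew in a greenhouse at 25° C. to 30° C., and the effect was scored three weeks after application using criteria from an earlier test.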"}, "chickweed [2]": {"test_system": "chickweed", "assay": "Test Example 4: herbicidal effect by soil treatment (Table 19, symbol P)", "assay_type": "in vivo, common chickweed (Stellaria media)", "settings": "320 g/ha", "method_in_brief": "as §2"}, "Italian ryegrass [3]": {"test_system": "Italian ryegrass", "assay": "Test Example 4: herbicidal effect by soil treatment (Table 19, symbol K)", "assay_type": "in vivo, Italian ryegrass (Lolium multiflorum)", "settings": "320 g/ha", "method_in_brief": "as §2"}, "redroot pigweed [4]": {"test_system": "redroot pigweed", "assay": "Test Example 5: herbicidal effect by foliage application, plastic box (Table 20, symbol N)", "assay_type": "in vivo, redroot pigweed (Amaranthus retroflexus)", "settings": "foliage application, 320 g/ha, evaluated three weeks after application", "method_in_brief": "(§3)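 Plants sown in sterilized diluvial soil and grown 14 days in a greenhouse at 25° C to 30° C, then sprayed on the foliage with the compound's emulsion diluted in water to a predetermined herbicide amount. Injury to weeds and crops scored three weeks after application on a visual rating scale.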"}, "blackgrass [5]": {"test_system": "blackgrass", "assay": "Test Example 4: herbicidal effect by soil treatment (Table 19, symbol J)", "assay_type": "in vivo, blackgrass (Alopecurus myosuroides)", "settings": "320 g/ha", "method_in_brief": "as §2"}, "persian speedwell [6]": {"test_system": "persian speedwell", "assay": "Test Example 5: herbicidal effect by foliage application, plastic box (Table 20, symbol R)", "assay_type": "in vivo, Persian speedwell (Veronica persica)", "settings": "foliage application, 320 g/ha, evaluated three weeks after application", "method_in_brief": "as §3"}, "green foxtail [7]": {"test_system": "green foxtail", "assay": "Test Example 4: herbicidal effect by soil treatment (Table 19, symbol G)", "assay_type": "in vivo, green foxtail (Setaria viridis)", "settings": "320 g/ha", "method_in_brief": "as §2"}, "persian speedwell [8]": {"test_system": "persian speedwell", "assay": "Test Example 4: herbicidal effect by soil treatment (Table 19, symbol R)", "assay_type": "in vivo, Persian speedwell (Veronica persica)", "settings": "320 g/ha", "method_in_brief": "as §2"}, "Japanese bulrush": {"test_system": "Japanese bulrush", "assay": "Test Example 1: herbicidal activity, application before weed generation under submerged conditions (Table 16, symbol B)", "assay_type": "in vivo, Japanese bulrush (Schoenoplectus juncoides)", "settings": "320 g/ha applied herbicide", "method_in_brief": "as §1"}, "late watergrass": {"test_system": "late watergrass", "assay": "Test Example 1: herbicidal activity, application before weed generation under submerged conditions (Table 16, symbol A)", "assay_type": "in vivo, late watergrass (Echinochloa oryzicola)", "settings": "320 g/ha applied herbicide", "method_in_brief": "as §1"}, "southern crabgrass [9]": {"test_system": "southern crabgrass", "assay": "Test Example 5: herbicidal effect by foliage application, plastic box (Table 20, symbol F)", "assay_type": "in vivo, southern crabgrass (Digitaria ciliaris)", "settings": "foliage application, 320 g/ha, evaluated three weeks after application", "method_in_brief": "as §3"}, "barnyard grass [10]": {"test_system": "barnyard grass", "assay": "Test Example 4: herbicidal effect by soil treatment (Table 19, symbol H)", "assay_type": "in vivo, barnyard grass (Echinochloa crus-galli)", "settings": "320 g/ha", "method_in_brief": "as §2"}, "wild oat [11]": {"test_system": "wild oat", "assay": "Test Example 5: herbicidal effect by foliage application, plastic box (Table 20, symbol I)", "assay_type": "in vivo, wild oat (Avena fatua)", "settings": "foliage application, 320 g/ha, evaluated three weeks after application", "method_in_brief": "as §3"}, "green foxtail [12]": {"test_system": "green foxtail", "assay": "Test Example 5: herbicidal effect by foliage application, plastic box (Table 20, symbol G)", "assay_type": "in vivo, green foxtail (Setaria viridis)", "settings": "foliage application, 320 g/ha, evaluated three weeks after application", "method_in_brief": "as §3"}, "wild oat [13]": {"test_system": "wild oat", "assay": "Test Example 4: herbicidal effect by soil treatment (Table 19, symbol I)", "assay_type": "in vivo, wild oat (Avena fatua)", "settings": "320 g/ha", "method_in_brief": "as §2"}, "barnyard grass [14]": {"test_system": "barnyard grass", "assay": "Test Example 3: herbicidal effect by foliage application, Wagner pot (Table 18, symbol H)", "assay_type": "in vivo, barnyard grass (Echinochloa crus-galli)", "settings": "320 g/ha", "method_in_brief": "(§4)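 Plants were sown in alluvial soil held under 0.1–0.5 cm standing water and grown 14 days in a greenhouse at 25–30 °C. An emulsifiable formulation, water-diluted to the set dose, was then sprayed onto the foliage, and effects were scored three weeks later using previously defined criteria.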"}, "chickweed [15]": {"test_system": "chickweed", "assay": "Test Example 5: herbicidal effect by foliage application, plastic box (Table 20, symbol P)", "assay_type": "in vivo, common chickweed (Stellaria media)", "settings": "foliage application, 320 g/ha, evaluated three weeks after application", "method_in_brief": "as §3"}, "lambsquarters [16]": {"test_system": "lambsquarters", "assay": "Test Example 4: herbicidal effect by soil treatment (Table 19, symbol O)", "assay_type": "in vivo, lambsquarters (Chenopodium album)", "settings": "320 g/ha", "method_in_brief": "as §2"}, "redroot pigweed [17]": {"test_system": "redroot pigweed", "assay": "Test Example 4: herbicidal effect by soil treatment (Table 19, symbol N)", "assay_type": "in vivo, redroot pigweed (Amaranthus retroflexus)", "settings": "320 g/ha", "method_in_brief": "as §2"}, "blackgrass [18]": {"test_system": "blackgrass", "assay": "Test Example 5: herbicidal effect by foliage application, plastic box (Table 20, symbol J)", "assay_type": "in vivo, blackgrass (Alopecurus myosuroides)", "settings": "foliage application, 320 g/ha, evaluated three weeks after application", "method_in_brief": "as §3"}, "barnyard grass [19]": {"test_system": "barnyard grass", "assay": "Test Example 5: herbicidal effect by foliage application, plastic box (Table 20, symbol H)", "assay_type": "in vivo, barnyard grass (Echinochloa crus-galli)", "settings": "foliage application, 320 g/ha, evaluated three weeks after application", "method_in_brief": "as §3"}, "Chinese sprangletop": {"test_system": "Chinese sprangletop", "assay": "Test Example 3: herbicidal effect by foliage application, Wagner pot (Table 18, symbol D)", "assay_type": "in vivo, chinese sprangletop (Leptochloa chinensis)", "settings": "320 g/ha", "method_in_brief": "as §4"}, "velvetleaf [20]": {"test_system": "velvetleaf", "assay": "Test Example 5: herbicidal effect by foliage application, plastic box (Table 20, symbol M)", "assay_type": "in vivo, velvetleaf (Abutilon theophrasti)", "settings": "foliage application, 320 g/ha, evaluated three weeks after application", "method_in_brief": "as §3"}, "Italian ryegrass [21]": {"test_system": "Italian ryegrass", "assay": "Test Example 5: herbicidal effect by foliage application, plastic box (Table 20, symbol K)", "assay_type": "in vivo, Italian ryegrass (Lolium multiflorum)", "settings": "foliage application, 320 g/ha, evaluated three weeks after application", "method_in_brief": "as §3"}, "windgrass [22]": {"test_system": "windgrass", "assay": "Test Example 4: herbicidal effect by soil treatment (Table 19, symbol L)", "assay_type": "in vivo, windgrass (Apera spica-venti)", "settings": "320 g/ha", "method_in_brief": "as §2"}, "southern crabgrass [23]": {"test_system": "southern crabgrass", "assay": "Test Example 4: herbicidal effect by soil treatment (Table 19, symbol F)", "assay_type": "in vivo, southern crabgrass (Digitaria ciliaris)", "settings": "320 g/ha", "method_in_brief": "as §2"}, "rice flat sedge": {"test_system": "rice flat sedge", "assay": "Test Example 3: herbicidal effect by foliage application, Wagner pot (Table 18, symbol E)", "assay_type": "in vivo, rice flat sedge (Cyperus iria)", "settings": "320 g/ha", "method_in_brief": "as §4"}, "windgrass [24]": {"test_system": "windgrass", "assay": "Test Example 5: herbicidal effect by foliage application, plastic box (Table 20, symbol L)", "assay_type": "in vivo, windgrass (Apera spica-venti)", "settings": "foliage application, 320 g/ha, evaluated three weeks after application", "method_in_brief": "as §3"}, "lambsquarters [25]": {"test_system": "lambsquarters", "assay": "Test Example 5: herbicidal effect by foliage application, plastic box (Table 20, symbol O)", "assay_type": "in vivo, lambsquarters (Chenopodium album)", "settings": "foliage application, 320 g/ha, evaluated three weeks after application", "method_in_brief": "as §3"}},
  "data": [
    {"molecule": "CSCCOc1ccc(-c2sc3ccc(F)cc3c2-c2c(O)c(C)nn(C)c2=O)cc1", "note": "[2-058]", "values": [
      {"measurement": "Herbicidal effect on C: oval-leafed pondweed (grade 0-5)", "setting": "oval-leafed pondweed", "result": "0 (Herbicidal rate of 5% or less (almost no effect))"},
      {"measurement": "herbicidal effect rating, M: velvetleaf", "setting": "velvetleaf [1]", "result": "3 (Herbicidal rate of 40% or more and less than 70%)"},
      {"measurement": "herbicidal effect rating, P: chickweed", "setting": "chickweed [2]", "result": "3 (Herbicidal rate of 40% or more and less than 70%)"},
      {"measurement": "herbicidal effect rating, K: Italian ryegrass", "setting": "Italian ryegrass [3]", "result": "4 (Herbicidal rate of 70% or more and less than 90%)"},
      {"measurement": "herbicidal effect on N: redroot pigweed", "setting": "redroot pigweed [4]", "result": "5 (Herbicidal rate of 90% or more (almost completely withered))"},
      {"measurement": "herbicidal effect rating, J: blackgrass", "setting": "blackgrass [5]", "result": "5 (Herbicidal rate of 90% or more (almost completely withered))"},
      {"measurement": "herbicidal effect on R: persian speedwell", "setting": "persian speedwell [6]", "result": "5 (Herbicidal rate of 90% or more (almost completely withered))"},
      {"measurement": "herbicidal effect rating, G: green foxtail", "setting": "green foxtail [7]", "result": "4 (Herbicidal rate of 70% or more and less than 90%)"},
      {"measurement": "herbicidal effect rating, R: persian speedwell", "setting": "persian speedwell [8]", "result": "4 (Herbicidal rate of 70% or more and less than 90%)"},
      {"measurement": "Herbicidal effect on B: Japanese bulrush (grade 0-5)", "setting": "Japanese bulrush", "result": "2 (Herbicidal rate of 20% or more and less than 40%)"},
      {"measurement": "Herbicidal effect on A: late watergrass (grade 0-5)", "setting": "late watergrass", "result": "0 (Herbicidal rate of 5% or less (almost no effect))"},
      {"measurement": "herbicidal effect on F: southern crabgrass", "setting": "southern crabgrass [9]", "result": "5 (Herbicidal rate of 90% or more (almost completely withered))"},
      {"measurement": "herbicidal effect rating, H: barnyard grass", "setting": "barnyard grass [10]", "result": "1 (Herbicidal rate of 5% or more and less than 20%)"},
      {"measurement": "herbicidal effect on I: wild oat", "setting": "wild oat [11]", "result": "5 (Herbicidal rate of 90% or more (almost completely withered))"},
      {"measurement": "herbicidal effect on G: green foxtail", "setting": "green foxtail [12]", "result": "5 (Herbicidal rate of 90% or more (almost completely withered))"},
      {"measurement": "herbicidal effect rating, I: wild oat", "setting": "wild oat [13]", "result": "0 (Herbicidal rate of 5% or less (almost no effect))"},
      {"measurement": "herbicidal effect on H (barnyard grass), rating 0-5", "setting": "barnyard grass [14]", "result": "5 (Herbicidal rate of 90% or more (almost completely withered))"},
      {"measurement": "herbicidal effect on P: chickweed", "setting": "chickweed [15]", "result": "5 (Herbicidal rate of 90% or more (almost completely withered))"},
      {"measurement": "herbicidal effect rating, O: lambsquarters", "setting": "lambsquarters [16]", "result": "5 (Herbicidal rate of 90% or more (almost completely withered))"},
      {"measurement": "herbicidal effect rating, N: redroot pigweed", "setting": "redroot pigweed [17]", "result": "5 (Herbicidal rate of 90% or more (almost completely withered))"},
      {"measurement": "herbicidal effect on J: blackgrass", "setting": "blackgrass [18]", "result": "5 (Herbicidal rate of 90% or more (almost completely withered))"},
      {"measurement": "herbicidal effect on H: barnyard grass", "setting": "barnyard grass [19]", "result": "5 (Herbicidal rate of 90% or more (almost completely withered))"},
      {"measurement": "herbicidal effect on D (Chinese sprangletop), rating 0-5", "setting": "Chinese sprangletop", "result": "5 (Herbicidal rate of 90% or more (almost completely withered))"},
      {"measurement": "herbicidal effect on M: velvetleaf", "setting": "velvetleaf [20]", "result": "5 (Herbicidal rate of 90% or more (almost completely withered))"},
      {"measurement": "herbicidal effect on K: Italian ryegrass", "setting": "Italian ryegrass [21]", "result": "5 (Herbicidal rate of 90% or more (almost completely withered))"},
      {"measurement": "herbicidal effect rating, L: windgrass", "setting": "windgrass [22]", "result": "4 (Herbicidal rate of 70% or more and less than 90%)"},
      {"measurement": "herbicidal effect rating, F: southern crabgrass", "setting": "southern crabgrass [23]", "result": "5 (Herbicidal rate of 90% or more (almost completely withered))"},
      {"measurement": "herbicidal effect on E (rice flat sedge), rating 0-5", "setting": "rice flat sedge", "result": "5 (Herbicidal rate of 90% or more (almost completely withered))"},
      {"measurement": "herbicidal effect on L: windgrass", "setting": "windgrass [24]", "result": "5 (Herbicidal rate of 90% or more (almost completely withered))"},
      {"measurement": "herbicidal effect on O: lambsquarters", "setting": "lambsquarters [25]", "result": "5 (Herbicidal rate of 90% or more (almost completely withered))"}
    ]}
  ]
}
